Results from BindingDB's records for doi:10.1016/j.bmcl.2007.12.040 (Merck Research Laboratories, 2008).
pIC50: −log10 of the molar value.

Experiments:
Assay in all cases: Akt Inhibition Assay
Settings in all cases: pH 7.5; 22 °C
[1] = target: RAC-alpha serine/threonine-protein kinase (Homo sapiens, UniProt P31749)
Source text: (§1) Purified recombinant human Akt kinase was monitored for kinase activity in the presence or absence of inhibitors in a 96-well format. Detection was done by homogeneous time-resolved fluorescence (HTRF) using a europium-labeled Phospho (S21)-GSK3a antibody, and streptavidin-linked XL665 fluorophore which binds to the biotin moiety on the substrate peptide.

[2] = target: RAC-beta serine/threonine-protein kinase (Homo sapiens, UniProt P31751)
Chain of RAC-beta serine/threonine-protein kinase (P31751 whole entry): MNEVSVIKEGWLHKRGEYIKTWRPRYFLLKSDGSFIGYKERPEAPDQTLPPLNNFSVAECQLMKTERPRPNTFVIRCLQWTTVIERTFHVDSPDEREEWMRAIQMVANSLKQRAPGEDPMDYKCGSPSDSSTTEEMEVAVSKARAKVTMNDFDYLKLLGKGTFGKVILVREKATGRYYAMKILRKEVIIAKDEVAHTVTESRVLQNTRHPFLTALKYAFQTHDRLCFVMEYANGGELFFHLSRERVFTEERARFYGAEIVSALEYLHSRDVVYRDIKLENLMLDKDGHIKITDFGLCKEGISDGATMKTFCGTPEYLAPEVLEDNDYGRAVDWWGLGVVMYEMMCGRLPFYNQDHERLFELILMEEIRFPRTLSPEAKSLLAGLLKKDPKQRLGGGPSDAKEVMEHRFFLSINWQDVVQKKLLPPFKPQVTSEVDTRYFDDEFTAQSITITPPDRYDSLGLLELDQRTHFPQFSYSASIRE
Source text: as §1

[3] = target: RAC-gamma serine/threonine-protein kinase (Homo sapiens, UniProt Q9Y243)
Chain of RAC-gamma serine/threonine-protein kinase (Q9Y243 whole entry): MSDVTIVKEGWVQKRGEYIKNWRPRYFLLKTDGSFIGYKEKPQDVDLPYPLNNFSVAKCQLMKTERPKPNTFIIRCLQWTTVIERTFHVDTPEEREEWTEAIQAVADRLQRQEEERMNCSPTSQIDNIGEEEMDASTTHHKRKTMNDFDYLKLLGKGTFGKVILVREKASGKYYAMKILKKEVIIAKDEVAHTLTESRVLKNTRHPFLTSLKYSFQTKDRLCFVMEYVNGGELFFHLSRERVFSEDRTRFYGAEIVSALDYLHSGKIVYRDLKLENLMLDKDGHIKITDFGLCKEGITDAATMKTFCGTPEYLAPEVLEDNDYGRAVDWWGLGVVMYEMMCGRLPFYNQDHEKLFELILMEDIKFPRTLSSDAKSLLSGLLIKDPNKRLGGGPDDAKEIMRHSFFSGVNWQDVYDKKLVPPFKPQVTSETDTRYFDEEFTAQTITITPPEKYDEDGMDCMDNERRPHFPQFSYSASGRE
Source text: as §1

Chain of RAC-alpha serine/threonine-protein kinase (P31749 whole entry): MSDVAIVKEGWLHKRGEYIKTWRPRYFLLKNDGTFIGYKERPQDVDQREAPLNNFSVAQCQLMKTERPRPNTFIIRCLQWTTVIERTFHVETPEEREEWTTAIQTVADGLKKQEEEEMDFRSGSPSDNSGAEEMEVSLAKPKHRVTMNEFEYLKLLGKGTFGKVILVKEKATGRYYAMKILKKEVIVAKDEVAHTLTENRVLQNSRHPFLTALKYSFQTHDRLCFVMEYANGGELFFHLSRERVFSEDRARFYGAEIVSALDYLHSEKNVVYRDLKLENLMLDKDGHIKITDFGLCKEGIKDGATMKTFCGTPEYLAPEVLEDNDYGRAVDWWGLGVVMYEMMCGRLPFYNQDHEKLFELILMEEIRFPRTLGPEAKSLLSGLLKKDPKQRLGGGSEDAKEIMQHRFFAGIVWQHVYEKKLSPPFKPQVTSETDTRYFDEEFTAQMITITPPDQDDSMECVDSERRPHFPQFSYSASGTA

Row | SMILES | pIC50 [1] | pIC50 [2] | pIC50 [3]
1 | Nc1ncnc2c1cnn2C1CCN(Cc2ccc(-c3ncc(-c4ncccn4)cc3-c3ccccc3)cc2)CC1 [1-[1-({4-[3-phenyl-5-(pyrimidin-2-yl)pyridin-2-yl]phenyl}methyl)piperidin-4-yl]-1H-pyrazolo[3,4-d]pyrimidin-4-amine] | 6.51 | 7.21 | 
2 | Nc1nnc(-c2cnc(-c3ccc(CN4CCC(n5ncc6c(N)ncnc65)CC4)cc3)c(-c3ccccc3)c2)s1 [5-(6-{4-[(4-{4-amino-1H-pyrazolo[3,4-d]pyrimidin-1-yl}piperidin-1-yl)methyl]phenyl}-5-phenylpyridin-3-yl)-1,3,4-thiadiazol-2-amine] | 6.90 | 7.66 | 
3 | Nc1nnc(-c2cnc(-c3ccc(CN4CCC(n5cc(-c6ccccn6)cn5)CC4)cc3)c(-c3ccccc3)c2)s1 [5-{5-phenyl-6-[4-({4-[4-(pyridin-2-yl)-1H-pyrazol-1-yl]piperidin-1-yl}methyl)phenyl]pyridin-3-yl}-1,3,4-thiadiazol-2-amine] | 6.67 | 7.05 | 
4 | Nc1nnc(-c2cnc(-c3ccc(CN4CCC(n5cc(-c6cnccn6)cn5)CC4)cc3)c(-c3ccccc3)c2)s1 [5-{5-phenyl-6-[4-({4-[4-(pyrazin-2-yl)-1H-pyrazol-1-yl]piperidin-1-yl}methyl)phenyl]pyridin-3-yl}-1,3,4-thiadiazol-2-amine] | 6.76 | 7.29 | 
5 | Nc1nnc(-c2cnc(-c3ccc(CN4CCC(n5c(=O)[nH]c6ncccc65)CC4)cc3)c(-c3ccccc3)c2)s1 [1-[1-({4-[5-(5-amino-1,3,4-thiadiazol-2-yl)-3-phenylpyridin-2-yl]phenyl}methyl)piperidin-4-yl]-1H,2H,3H-imidazo[4,5-b]pyridin-2-one] | 6.36 | 7.14 | 
6 | Nc1nnc(-c2cnc(-c3ccc(CN4CCC(c5cc(-c6ccncc6)[nH]n5)CC4)cc3)c(-c3ccccc3)c2)s1 [5-{5-phenyl-6-[4-({4-[5-(pyridin-4-yl)-1H-pyrazol-3-yl]piperidin-1-yl}methyl)phenyl]pyridin-3-yl}-1,3,4-thiadiazol-2-amine] | 6.91 | 7.42 | 
7 | Nc1ncnc2c1cnn2C1CCN(Cc2ccc(-c3ncc(-c4nnc[nH]4)cc3-c3ccccc3)cc2)CC1 [1-[1-({4-[3-phenyl-5-(1H-1,2,4-triazol-3-yl)pyridin-2-yl]phenyl}methyl)piperidin-4-yl]-1H-pyrazolo[3,4-d]pyrimidin-4-amine] | 6.74 | 7.00 | 
8 | Nc1nnc(-c2cnc(-c3ccc(CNCCC(=O)c4ccccc4N)cc3)c(-c3ccccc3)c2)s1 [3-[({4-[5-(5-amino-1,3,4-thiadiazol-2-yl)-3-phenylpyridin-2-yl]phenyl}methyl)amino]-1-(2-aminophenyl)propan-1-one] | 6.94 | 7.52 | 
9 | Nc1ncnc2c1cnn2C1CCN(Cc2ccc(-c3ncc(-c4nccs4)cc3-c3ccccc3)cc2)CC1 [1-[1-({4-[3-phenyl-5-(1,3-thiazol-2-yl)pyridin-2-yl]phenyl}methyl)piperidin-4-yl]-1H-pyrazolo[3,4-d]pyrimidin-4-amine] | 6.58 | 7.19 | 
10 | Nc1ncnc2c1cnn2C1CCN(Cc2ccc(-c3ncc(-c4ncon4)cc3-c3ccccc3)cc2)CC1 [1-[1-({4-[5-(1,2,4-oxadiazol-3-yl)-3-phenylpyridin-2-yl]phenyl}methyl)piperidin-4-yl]-1H-pyrazolo[3,4-d]pyrimidin-4-amine] | 6.74 | 6.92 | 
11 | Nc1ncnc2c1cnn2C1CCN(Cc2ccc(-c3ncc(-c4ccccn4)cc3-c3ccccc3)cc2)CC1 [1-[1-({4-[3-phenyl-5-(pyridin-2-yl)pyridin-2-yl]phenyl}methyl)piperidin-4-yl]-1H-pyrazolo[3,4-d]pyrimidin-4-amine] | 5.79 | 6.43 | 
12 | Nc1nnc(-c2cnc(-c3ccc(CN4CCC(c5n[nH]c(-c6ccccn6)n5)CC4)cc3)c(-c3ccccc3)c2)s1 [5-{5-phenyl-6-[4-({4-[5-(pyridin-2-yl)-1H-1,2,4-triazol-3-yl]piperidin-1-yl}methyl)phenyl]pyridin-3-yl}-1,3,4-thiadiazol-2-amine] | 7.07 | 7.66 | 
13 | Nc1ncnc2c1ncn2C1CCN(Cc2ccc(-c3ncc(-c4nnn[nH]4)cc3-c3ccccc3)cc2)CC1 [9-[1-({4-[3-phenyl-5-(1H-1,2,3,4-tetrazol-5-yl)pyridin-2-yl]phenyl}methyl)piperidin-4-yl]-9H-purin-6-amine] | 6.68 | 6.98 | < 4.30
14 | Nc1nnc(-c2cnc(-c3ccc(CN4CCC(c5cc(-c6ccccn6)[nH]n5)CC4)cc3)c(-c3ccccc3)c2)s1 [5-{5-phenyl-6-[4-({4-[5-(pyridin-2-yl)-1H-pyrazol-3-yl]piperidin-1-yl}methyl)phenyl]pyridin-3-yl}-1,3,4-thiadiazol-2-amine] | 7.02 | 7.55 | 
